For two molecules, IC50 results are on record in patent US7268124B2, “Geranylgeranyl pyrophosphate synthase inhibitors” (University of Iowa Research Foundation, priority 2004, dated 2007).

Holding throughout (assay type): biochemical
In one experiment the target is FPTase (Homo sapiens, UniProt P49356). Description: FPTase enzyme inhibition. Particulars: mammalian enzyme; also no inhibition at 1 to 10 nanomolar; read-out: FPTase: not inhibited at concentrations as high as. From the text:
The ability of a compound of the invention to act as an inhibitor of geranylgeranyl pyrophosphate synthase may be determined using pharmacological models which are well known to the art, for example see Holstein, S. A., et al., Biochemistry 2003, 42, 4384-4391; and Ericsson et al, J. Biological Chemistry, 1993, 268, 832-838. The ability of a compound to inhibit FPP synthase, FPTase, and GGPTase can also be determined using pharmacological models which are well known to the art. The selectivity of a compound as an inhibitor of geranylgeranyl pyrophosphate synthase can be evaluated by comparing it's inhibitory activity against this enzyme with it's activity against another enzyme. In one embodiment of the invention, the compound of the invention is at least 2-fold selective for inhibiting geranylgeranyl pyrophosphate synthase compared to farnesylpyrophosphate. In another embodiment the compound is at least 10-fold selective for inhibiting geranylgeranyl pyrophosphate synthase compared to farnesylpyrophosphate. In another embodiment the compound is at least about 100-fold selective for inhibiting geranylgeranyl pyrophosphate synthase compared to farnesylpyrophosphate. In another embodiment of the invention, the compound of the invention is at least 2-fold selective for inhibiting geranylgeranyl pyrophosphate synthase compared to FPTase or GGPTase. […]

Another experiment deals with T1, FPP synthase (Homo sapiens, UniProt P14324).
T1 sequence (P14324 1-419): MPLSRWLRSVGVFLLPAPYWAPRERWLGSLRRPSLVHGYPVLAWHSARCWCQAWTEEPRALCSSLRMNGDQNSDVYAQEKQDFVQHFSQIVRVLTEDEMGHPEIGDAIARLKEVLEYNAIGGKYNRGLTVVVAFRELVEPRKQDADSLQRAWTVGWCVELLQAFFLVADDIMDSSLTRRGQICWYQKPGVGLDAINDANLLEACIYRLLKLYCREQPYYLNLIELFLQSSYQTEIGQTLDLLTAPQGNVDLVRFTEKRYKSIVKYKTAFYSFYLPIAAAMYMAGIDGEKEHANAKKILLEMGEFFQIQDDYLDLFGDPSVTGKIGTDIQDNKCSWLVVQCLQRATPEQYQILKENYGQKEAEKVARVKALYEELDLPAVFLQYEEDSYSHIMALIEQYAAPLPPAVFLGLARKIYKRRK
The experiment in a line: FPP synthase enzyme inhibition. Conditions: mammalian enzyme; also no inhibition at 1 to 10 nanomolar; read-out: FPP synthase: not inhibited at concentrations as high as. From the text: (§1) The ability of a compound of the invention to act as an inhibitor of geranylgeranyl pyrophosphate synthase may be determined using pharmacological models which are well known to the art, for example see Holstein, S. A., et al., Biochemistry 2003, 42, 4384-4391; and Ericsson et al, J. Biological Chemistry, 1993, 268, 832-838. The ability of a compound to inhibit FPP synthase, FPTase, and GGPTase can also be determined using pharmacological models which are well known to the art. The selectivity of a compound as an inhibitor of geranylgeranyl pyrophosphate synthase can be evaluated by comparing it's inhibitory activity against this enzyme with it's activity against another enzyme.

The target of a further experiment is T2, mammalian GGPP synthase (Homo sapiens, UniProt O95749).
T2 sequence (O95749 1-300): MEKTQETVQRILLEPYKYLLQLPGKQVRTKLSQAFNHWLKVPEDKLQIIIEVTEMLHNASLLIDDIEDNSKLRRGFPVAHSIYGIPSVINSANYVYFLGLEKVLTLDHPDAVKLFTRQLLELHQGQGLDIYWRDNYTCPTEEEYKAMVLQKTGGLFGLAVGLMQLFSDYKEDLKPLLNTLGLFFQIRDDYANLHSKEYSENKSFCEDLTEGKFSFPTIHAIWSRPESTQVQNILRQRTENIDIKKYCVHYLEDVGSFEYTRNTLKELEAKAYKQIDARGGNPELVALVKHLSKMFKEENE
Description: GGPP synthase enzyme inhibition. Conditions: read-out: concentration range that inhibits GGPP synthase by 50%.
Text: as §1

Structures can show the parent of a compound that is named as a salt.

Consider `CC(C)=CCC/C(C)=C/CC(C/C=C(\C)CCC=C(C)C)(P(=O)(O)O)P(=O)(O)O` [Compound 12, 1-(3,7-dimethyl-octa-2,6-dienyl)-4,8-dimethyl-nona-3,7-dienyl-1,1-bisphosphonic acid, tetrasodium salt], for which the IC50 at FPTase and at FPP synthase was greater than 50 µM in each case.

For `CC(C)=CCC/C(C)=C/CC(C/C=C(\C)CCC=C(C)C)(P(=O)(OCOC(=O)C(C)(C)C)OCOC(=O)C(C)(C)C)P(=O)(OCOC(=O)C(C)(C)C)OCOC(=O)C(C)(C)C` [Compound 13, tetrapivaloyloxymethyl (E)-1,1-bis(4,8-dimethyl-nona-3,7-dienyl)-1,1-bisphosphonate], the IC50 was greater than 50 µM at FPTase, greater than 50 µM at FPP synthase and 1 to 10 nM on mammalian GGPP synthase.
